Experimental data taken from patent publication US10744205B2, “Antibody drug conjugates of kinesin spindel protein (KSP) inhibitors with anti-CD123-antibodies” (Bayer Pharma Aktiengesellschaft, priority 2015, dated 2020).

Columns and labels:
KPL4 = assay: Cytotoxicity of metabolites, MTT assay, KPL4; format: cell-based
[1] = tested on: NCI-H292: human mucoepidermoid lung carcinoma cells; assay: Cytotoxicity of metabolites, MTT assay, NCI-H292; format: cell-based; settings: growth inhibition, 96 h incubation
Procedure: The analysis of the cytotoxic effects of the anti-CD123 ADCs and the corresponding metabolites was carried out with various cell lines:
NCI-H292: human mucoepidermoid lung carcinoma cells, ATCC-CRL-1848, standard medium: RPMI 1640 (Biochrom; # FG1215, stab. glutamine)+10% FCS (Biochrom; # S0415).
The cells were cultivated by the standard method as stated by the American Tissue Culture Collection (ATCC) or the Leibniz-Institut DSMZ-Deutsche Sammlung von Mikroorganismen und Zellkulturen GmbH (DSMZ) for the cell lines in question.
The cells were cultivated according to the standard method using the growth media listed under C-1. The test is carried out by detaching the cells with a solution of Accutase in PBS (Biochrom AG # L2143), pelleting, resuspending in culture medium, counting and sowing into a 96-well culture plate with white bottom (Costar #3610) (NCI H292: 2500 cells/well; MOLM-13: 2000 cells/well; THP-1: 8000 cells/well; KG-1: 5000 cells/well in a total volume of 100 μl). The cells were then incubated in an incubator at 37° C. and 5% carbon dioxide. After 48 h, the medium was replaced.
The antibody drug conjugates or the metabolites in 10 μl of culture medium in concentrations from 10^−5M to 10^−13M were then pipetted to the cells (in triplicate), and the assay was then incubated in an incubator at 37° C. and 5% carbon dioxide. […] To this end, the MTT reagent was incubated with the cells for 4 h, followed by lysis of the cells overnight by addition of the detergent. The dye formed was detected at 570 nm (Infinite M1000 pro, Tecan). The measured data were used to calculate the IC50 of the growth inhibition using the DRC (dose response curve).
The proliferation of cells which were not treated with test substance but were otherwise identically treated was defined as the 100% figure.
Table 2 below lists the IC50 values of representative working examples from the assay described and the corresponding cytotoxicity data (MTT assay).

[2] = Cell permeability, flux assay using Caco-2 cells; format: in vitro ADME; settings: human
[3] = target: T1, motor domain of the human kinesin spindle protein KSP/Eg5 (Homo sapiens, UniProt P52732); assay: Inhibition of the kinesin spindle protein KSP/Eg5 (ATPase activity, malachite green); format: biochemical; settings: 10 nM KSP/Eg5, microtubuli, 500 μM ATP, 2 h at RT
T1 construct: The motor domain of the human kinesin spindle protein KSP/Eg5; purchased tebu-bio/Cytoskeleton Inc 027EG01-XL
T1 sequence (P52732 18-359 limits assumed): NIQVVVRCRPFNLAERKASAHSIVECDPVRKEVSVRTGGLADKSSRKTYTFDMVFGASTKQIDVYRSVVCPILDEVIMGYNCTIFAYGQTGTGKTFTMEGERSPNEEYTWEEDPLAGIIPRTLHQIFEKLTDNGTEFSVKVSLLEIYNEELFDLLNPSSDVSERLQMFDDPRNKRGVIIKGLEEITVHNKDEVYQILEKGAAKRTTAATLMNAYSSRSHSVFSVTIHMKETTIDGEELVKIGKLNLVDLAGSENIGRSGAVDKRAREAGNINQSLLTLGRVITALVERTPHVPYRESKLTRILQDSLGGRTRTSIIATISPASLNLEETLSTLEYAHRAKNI
Procedure: C-1b Determination of the Inhibition of the Kinesin Spindle Protein KSP/Eg5 by Selected Examples
The motor domain of the human kinesin spindle protein KSP/Eg5 (tebu-bio/Cytoskeleton Inc, No. 027EG01-XL) was incubated in a concentration of 10 nM with microtubuli (bovine or porcine, tebu-bio/Cytoskeleton Inc) stabilized with 50 μg/ml taxol (Sigma No. T7191-5MG) for 5 min at RT in 15 mM PIPES, pH 6.8 (5 mM MgCl2 and 10 mM DTT, Sigma). […] Incubation was at RT for 2 h. ATPase activity was detected by detecting the inorganic phosphate formed using malachite green (Biomol). […] The positive controls used were monastrol (Sigma, M8515-1 mg) and ispinesib (AdooQ Bioscience A10486). The individual data of the dose-activity curve are eight-fold determinations. The IC50 values are means of two independent experiments.

Caco-2 cells = assay: Cell permeability, flux assay using Caco-2 cells; format: in vitro ADME; settings: Caco-2, B to A, 2 hours

Compound | IC50 (KPL4; KPL4, growth inhibition) | IC50 ([1]; Homo sapiens, NCI-H292, 96 h) | IC50 (KPL4; growth inhibition) | IC50 [1] | other results
CC(C)(C)[C@H](c1cc(-c2cc(F)ccc2F)cn1Cc1ccccc1)N(CC[C@H](N)C(=O)NCCNC(=O)CN1C(=O)CC(SC[C@H](N)C(=O)O)C1=O)C(=O)CO (stereo partly drawn) [Example M1, S-[1-(2-{[2-({(2S)-2-Amino-4-[{(1R)-1-[1-benzyl-4-(2,5-difluorophenyl)-1H-pyrrol-2-yl]-2,2-dimethylpropyl}(glycoloyl)amino]butanoyl}amino)ethyl]amino}-2-oxoethyl)-2,5-dioxopyrrolidin-3-yl]-L-cysteine/trifluoroacetic acid (1:1)] | ≥ 0.5 µM | ≥ 0.5 µM |  |  | 
CC(C)(C)[C@H](c1cc(-c2cc(F)ccc2F)cn1Cc1ccccc1)N(CCCN)C(=O)CSC[C@H](NC(=O)CCOCCOCCOCCOCCNC(=O)CNC(=O)[C@H](CC(=O)O)SC[C@H](N)C(=O)O)C(=O)O.O=C(O)C(F)(F)F.O=C(O)C(F)(F)F [Example M21, (2R,24S,27R)-27-Amino-2-[({2-[(3-aminopropyl){(1R)-1-[1-benzyl-4-(2,5-difluorophenyl)-1H-pyrrol-2-yl]-2,2-dimethylpropyl}amino]-2-oxoethyl}sulphanyl)methyl]-24-(carboxymethyl)-4,20,23-trioxo-7,10,13,16-tetraoxa-25-thia-3,19,22-triazaoctacosane-1,28-dioic acid trifluoroacetic acid (1:2)] |  |  |  |  | Papp B→A at 2 h ([2]; Caco-2, B to A, 2 hours): 0.5 nm/s; efflux ratio at 2 h ([2]; Caco-2, ratio of Papp (B-A) to Papp (A-B)): 1.5; IC50 [3]: 0.00231 µM
CC(C)(C)[C@H](c1cc(-c2cc(F)ccc2F)cn1Cc1ccccc1)N(CC[C@H](N)C(=O)NCCC(=O)N[C@@H](CCC(=O)O)C(=O)O)C(=O)CO [Example M23, N-{(2S)-2-Amino-4-[{(1R)-1-[1-benzyl-4-(2,5-difluorophenyl)-1H-pyrrol-2-yl]-2,2-dimethylpropyl}(glycoloyl)amino]butanoyl}-beta-alanyl-L-glutamic acid/trifluoroacetic acid (1:1)] | ≥ 0.5 µM | ≥ 0.5 µM |  |  | 
CC(C)(C)[C@H](c1cc(-c2cc(F)ccc2F)cn1Cc1ccccc1)N(CC[C@H](N)C(=O)NCCC(=O)N[C@H](CCC(=O)O)C(=O)O)C(=O)CO [Example M24, N-{(2S)-2-Amino-4-[{(1R)-1-[1-benzyl-4-(2,5-difluorophenyl)-1H-pyrrol-2-yl]-2,2-dimethylpropyl}(glycoloyl)amino]butanoyl}-beta-alanyl-D-glutamic acid/trifluoroacetic acid (1:1)] | ≥ 0.5 µM |  |  |  | 
(1R,4R,27R,33R)-1-Amino-32-(3-aminopropyl)-33-[1-benzyl-4-(2,5-difluorophenyl)-1H-pyrrol-2-yl]-34,34-dimethyl-6,9,25,31-tetraoxo-13,16,19,22-tetraoxa-3,29-dithia-7,10,26,32-tetraazapentatriacontane-1,4,27-tricarboxylic acid/trifluoroacetic acid (1:2) [Example M20] |  |  | 0.213 µM | 0.149 µM | 
N-{(2S)-2-Amino-4-[{(1R)-1-[1-benzyl-4-(2,5-difluorophenyl)-1H-pyrrol-2-yl]-2,2-dimethyl propyl}(glycoloyl)amino]butanoyl}-L-glutamic acid/trifluoroacetic acid (1:1) [Example M25] |  |  | ≥ 0.5 µM | ≥ 0.5 µM | Papp (B-A) (Caco-2 cells): 8.1 nm/s
